This is an account of results in PubChem BioAssay (NCI).

Holding throughout (test): growth of human tumour cells (NCI), 48 h
The test system of assay [1] is DLD-1 colon.
Assay [2] has as its system DMS 273 small cell lung.
For assay [3], the system named is MOLT-4 leukemia.
Assay [4] has as its system OVCAR-8 ovarian.
In assay [5] the test system is XF 498 CNS.
Assay [6] relates to BT-549 breast.
Assay [7] concerns HS 578T breast.
The test system of assay [8] is MCF7 breast.
The subject of assay [9] is MDA-MB-231 breast.
Assay [10] deals with T-47D breast.

Values joined by “and” are separate entries in the source; they are usually repeats but may differ in a detail not shown here. Equal values may be shown once.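 Exposure lasted 48 hours, with cells grown in 96-well plates and compounds tested at five concentrations. The concentration for 50% growth inhibition is given as GI50. TGI is the concentration that stops growth completely.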 Some results are limits rather than exact numbers.

As for `c1ccc(SC2CCSc3ccccc3C2Sc2ccccc2)cc1` (stereo unspecified), the TGI in assay [1], in assay [2], in assay [3], in [4] and in [5] was more than 100 µM in each case.

Turning to `CC(=O)n1c2c(c(=O)n1-c1ccccc1)S(=O)CCC2` (stereo unspecified), the TGI in assay [1] was more than 100 µM; in [2], more than 100 µM; in [3], 6.9 µM; in assay [4], more than 100 µM; in [5] it was more than 100 µM.

Consider `CCCCCCC[CH2][Sn]1([CH2]CCCCCCC)[O]C(=O)c2cccnc2[S]1`, for which the GI50 in [1] is more than 100 µM; in [2] it was more than 100 µM; in [3] it was more than 100 µM; in assay [4], more than 100 µM; in assay [5], 30.8 µM. The TGI in assay [1], in assay [2], in [3], in assay [4] and in [5] was more than 100 µM each time.

Consider `CC[C@@]12N=C(N(C)C)C[C@]1(O)ON=C2C`, for which the TGI in assay [1], in [2], in [3], in assay [4] and in assay [5] was more than 100 µM throughout.

`Cc1ccc(NC(=O)C2C(=O)N(c3ccc(C)c(C)c3)C(=O)C2N=N)cc1C` (stereo unspecified): the TGI in assay [1], in [2], in assay [3], in [4] and in assay [5] was more than 100 µM in each case.

For `COc1ccc2oc(-c3cccnc3)cc(=O)c2c1`, the TGI in [1], in assay [2], in [3] and in assay [5] was more than 100 µM in each case.

Regarding `O=C(CSc1nnc(-c2ccc(N=Cc3ccc(Cl)cc3)cc2)o1)Nc1ccc(Cl)cc1`, the TGI in [2], in assay [3], in assay [4] and in assay [5] was more than 100 µM each time.

Consider `O=C(Nc1cc(Cl)ccc1Cl)c1cc2cccc(Cl)c2oc1=O`, for which the TGI in assay [1], in assay [2], in assay [3], in assay [4] and in assay [5] was more than 100 µM in each case.

For the molecule `O=c1[nH]cc(COCCO)c(=O)[nH]1`, the TGI in [1], in assay [2], in [3], in assay [4] and in [5] was more than 100 µM each time.

As for `O=C1[C@@H]2C3c4ccccc4C([C@@H]2C(=O)N1c1ccccc1)S3(=O)=O`, the TGI in [1], in assay [2], in assay [3], in assay [4] and in [5] was more than 100 µM throughout.

With `CC1=C2CCCC2=C/C(=N/Nc2ccc([N+](=O)[O-])cc2[N+](=O)[O-])CC1`, the TGI in assay [1], in assay [2], in assay [3], in [4] and in [5] was more than 100 µM throughout.

In the case of `O=C(O)[C@H](NS(=O)(=O)c1ccc2ccccc2c1)c1ccccc1`, the TGI in [1], in assay [2], in [3] and in assay [5] was more than 100 µM in each case.

Consider `O=C1CC(C[C@H](O)C2CCCCC2O)CC(=O)N1Cc1ccccc1` (stereo partly specified), for which the TGI in [1], in assay [2], in [3], in assay [4] and in assay [5] was more than 100 µM throughout.

Consider `COc1cccc(/C=N/[N-]C(=O)c2ccncc2)c1[O-].[Cu+2].[OH3+]`, for which the GI50 in assay [1] was 52.6 µM; in [2] it was 48.2 µM; in assay [3] it was 35.2 µM; in assay [4], 22 µM; in [5], more than 100 µM. The TGI in assay [1], in [2], in [3], in [4] and in [5] was more than 100 µM throughout.

For `Cc1ccc(Cn2c(C)nc3c2C(=O)c2ccccc2C3=O)cc1`, the TGI in assay [1] was more than 100 µM; in assay [2], 19 µM; in assay [3], more than 100 µM; in [4], 28 µM; in assay [5], 47.6 µM.

For the molecule `COC1C(O)=C2C(=O)O/C(C)=C/C=C/C=C/C=C\CC(c3ccccc3)NC(=O)\C=C/C=C\C=C\C=C\[C@@]2(C)[C@@H]1O` (stereo partly specified), the TGI in assay [6] was found to be 0.0201 µM; in assay [1] it was 0.147 µM; in assay [7], 0.0395 µM; in assay [8], 0.0175 µM; in [9], 0.0896 µM; in [3], 0.177 µM. Besides, the TGI in assay [4] was determined as 0.243 µM; in [10] it was 0.158 µM; in assay [5] it was 0.304 µM.

As to `O=C(O)CSc1n[nH]c(-c2ccccc2)n1`, the TGI in assay [1], in assay [2], in assay [3], in [4] and in [5] was more than 100 µM in each case.

With `CCOC(=O)C(C)(C)Oc1ccc2c(C)c(-c3ccc(Cl)cc3)c(=O)oc2c1`, the TGI is more than 100 µM in assay [1]; more than 100 µM in assay [2]; more than 100 µM in assay [3]; more than 100 µM in assay [4]; 83.9 µM in assay [5].

On to `O=c1n(-c2ccccc2)c(=O)n2n1C1C=CC2C2C(C1)C2(Cl)Cl` (stereo unspecified), for which the TGI in assay [1], in assay [2], in assay [3], in assay [4] and in assay [5] was more than 100 µM in each case.

As for `CC(=O)O[C@H]1CCC2[C@@H]3CCC4=C(O)c5nocc5C[C@]4(C)C3CC[C@@]21C` (stereo partly specified), the TGI in [2], in [3], in assay [4] and in [5] was more than 100 µM throughout.

As to `N=c1ccn2c(n1)OC1C(O)C(CO)OC12` (stereo unspecified), the GI50 is more than 100 µM in assay [6]; more than 100 µM in [7]; 0.0703 µM in assay [8]; more than 100 µM in [9]; 0.016 µM in assay [3]; 0.481 µM in assay [4]. Besides, the GI50 in assay [10] was 16.8 µM. In addition, the TGI in [6] was more than 1000 µM; in assay [1], more than 1000 µM; in [2] it was more than 364 µM; in assay [7], more than 1000 µM; in [8], 361 µM and > 100 µM; in assay [9] it was more than 1000 µM. Moreover, the TGI in [4], in assay [10] and in assay [5] was more than 1000 µM throughout.

As for `O=C(NCCCCN=c1cccccc1NCCCCNC(=O)OCc1ccccc1)OCc1ccccc1`, the TGI in assay [1] was determined as 43.6 µM; in assay [2], 31.3 µM; in assay [3], 38.1 µM; in [4], 47.7 µM; in assay [5] it was 18.6 µM.

As to `Cc1ccc(S(=O)(=O)N/N=C/c2oc(-c3ccncc3)c(-c3ccncc3)c2[N+](=O)[O-])cc1`, the TGI in assay [1], in assay [2], in assay [3], in [4] and in assay [5] was more than 100 µM throughout.

For the molecule `O=[N+]([O-])c1ccc(-n2nnc(C3=NCCN3)c2-c2ccc(Cl)cc2)cc1`, the TGI in assay [1], in [2], in assay [3], in assay [4] and in assay [5] was more than 100 µM throughout.
